# Source: the NIST ThermoML archive (doi:10.1016/j.jct.2003.09.005)
# Where “and” joins values, the source holds several entries; their conditions need not be identical. Equal entries are not always repeated. Numbers after ± are expanded uncertainties.
# Assays:
# [1] = 298.15 K; 101.33 kPa; Liquid
# [2] = xn = mol fraction of the nth substance listed; conditions: 298.15 K, 101.33 kPa, Liquid, Vibrating tube method
Compound,mass density [1],further results
O=C1OCCO1 [ethylene carbonate] + COCCOC,,mass density ([2]; x2 = 0.4158): 1099.62 ± 0.57 kg/m3 and 1099.78 ± 0.56 kg/m3 and 1100.01 ± 0.56 kg/m3
O=C1OCCO1 [ethylene carbonate] + C1CCOC1,,mass density ([2]; x2 = 0.4631): 1110.32 ± 0.57 kg/m3 and 1109.98 ± 0.57 kg/m3 and 1109.85 ± 0.57 kg/m3
O=C1OCCO1 [ethylene carbonate] + CCOC(C)=O,,mass density ([2]; x2 = 0.4577): 1118.46 ± 0.58 kg/m3 [middle of 4 runs]
O=C1OCCO1 [ethylene carbonate] + CC#N,,mass density ([2]; x2 = 0.5533): 1070.54 ± 0.55 kg/m3 and 1071.16 ± 0.54 kg/m3

# Now from value to molecule, other results behind:
mass density [1],Compound,further results
894.51 ± 0.54 kg/m3,CCOC(C)=O [ethyl acetate],
861.43 ± 0.56 kg/m3,"COCCOC [1,2-dimethoxyethane]",
776.69 ± 0.62 kg/m3,CC#N [acetonitrile],
882.01 ± 0.54 kg/m3,C1CCOC1 [tetrahydrofuran],
